Peptide text beside a SMILES is read from it. * marks the point of attachment. Cbz = O=C(OCc1ccccc1)*; CH2F = FC*

Holding throughout (format): cell-based
In assay [1] the test system is PDAC cells. In words: cell death quantification of PDAC (CON or NGL1 knockout) cultured alone or co-cultured with CAFs in 3D under stressful conditions. As to conditions: stressful 3D culture (FIG. 9). The procedure:
NGL1 expression in PDAC determined the mode of cell death under stressful co-culture conditions with CAFs. Referring to FIG. 9 (panel A), cell death quantification of PDAC (CON or knockout) cultured alone in 3D was carried out. Referring to FIG. 9 (panel B), cell death quantification of PDAC (CON or knockout) co-cultured with CAFs (CON or knockout) in 3D was also carried out. […] Also, knockout of NetG1 I CAFs drove PDAC to higher amounts of death across all conditions.

In assay [2] the test system is PDAC cells. In words: PDAC survival in stressful culture conditions (serum free, glutamine free) with CAFs. To be noted: FIG. 7. An excerpt: Referring to FIG. 7 (panel B), extracellular matrix produced by NetG1 knockout CAFs is less supportive to PDAC survival. Referring to FIG. 7 (panel C), knockout of NetG1 in CAFs produced less glutamate and glutamine. Referring to FIG. 7 (panel D), knockout of NetG1 in CAFs and knockout of NGL1 in PDAC expressed less glutamine/glutamate related proteins.

Assay [3] deals with PDAC cells. In words: NK cell killing assay in 3D (CAF ECM). As to conditions: added to NetG1 knockout CAFs; FIG. 11 panel D. The method, then: Knockout of NetG1 in CAFs reduced immunosuppressive cytokine secretion, and CAFs protected PDAC from NK cell induced death in a NetG1/NGL1-dependent manner. Referring to FIG. 11 (panel A), a panel of immunosuppressive and pro-tumor cytokines (GM-CSF, IL-1Beta, CCL20, IL-6, IL-8, TGF-beta) and NK stimulating cytokine (IL-15) was performed. Knockout of NetG1 in CAFs produced less of all cytokines tested, but still produced significant levels of the anti-tumor NK cell cytokine IL-15. Referring to FIG. 11 (panel B), an assay was performed with Granzyme B and IFN-g production in NK cells stimulated with IL-2+IFN-γ (positive controls) or in co-culture conditions with conditioned media or direct contact with CAFs (CON vs knockout of NetG1). Knockout of NetG1 in CAF media or direct contact partially activated NK cells. Referring to FIG. 11 (panel C), an NK cell killing assay in 3D (CAF ECM) was carried out. Knockout of NetG1 in CAFs allowed NK cells to kill PDAC, while CON CAFs protected PDAC.

As to `CC(NC(=O)C(NC(=O)OCc1ccccc1)C(C)C)C(=O)NC(CC(=O)O)C(=O)CF` (stereo not drawn) [zvad] (Cbz-Val-Ala-Asp-CH2F; configuration not given here), the “mode of cell death of NGL1+ PDAC under caspase inhibition” value with PDAC cells [1] (NGL1+ PDAC) was “driven to necroptotic death”. Moreover, in the assay on PDAC cells [1] (NGL1 knockout PDAC), the “cell death of NGL- PDAC under caspase inhibition” value is “protected from death”.

Regarding `N[C@@H](CCC(=O)O)C(=O)O` [glutamate], in the assay with PDAC cells [2], the “PDAC survival after adding back to the stressful culture conditions” value is “partially rescued PDAC survival”. In the assay with PDAC cells [3], the “protection of PDAC from NK cell-induced death” value is given as “partially restored protection”. As for `NC(=O)CC[C@H](N)C(=O)O` [glutamine], in the assay with PDAC cells [2], the “PDAC survival after adding back to the stressful culture conditions” value is on record as “partially rescued PDAC survival”.

These data come from patent US12098193B2, “Netrin G1 as a biomarker for enhancing tumor treatment efficacy” (Institute For Cancer Research, priority 2017, dated 2024).
